# Assay results reported in US20200247815A1, “PYRAZOLYL-CONTAINING TRICYCLIC DERIVATIVE, PREPARATION METHOD THEREFOR AND USE THEREOF” (Jiangsu Hansoh Pharmaceutical Group Co., Ltd., priority 2017, published 2020).
# Assays:
# [1] = conventional solvents, background statement; cited from earlier work
# [2] = Pharmacokinetics assay in mice (oral, plasma); format: in vivo, Balb/c Mouse
# Procedure: Balb/c Mouse was used as the test animal. The pharmacokinetic behavior of compounds of Example 1, 2 and 7 administrated orally was studied in mice (plasma).
# 170 g of PEG400 and 20 g of Solutol HS-15 were added to a 250 mL glass flask, and then 10 mL of NMP was added. The solution was mixed well by ultrasound for 10 minutes to obtain a clear solution.
# 11.2 mg of the compound of Example 1, 10.8 mg of the compound of Example 2 and 9.8 mg of the compound of Example 7 were weighted to a 4 mL glass flasks respectively, […], 2.160 mL and […] of the above solution were treated by ultrasound for 10 minutes to obtain a colorless clear solution with a concentration of 5 mg/mL.
# After fasting overnight, the male Balb/c mice were administrated with the compounds (PO), the dose was 50 mg/kg, and the administration volume was 10 mL/kg.
# Blood was taken before administration and at 0.25, 0.5, 1, 2, 4, 6, 8 and 24 hours after administration. The blood samples were stored in EDTA-2K tubes, and centrifuged for 6 minutes to separate the blood plasma. The plasma samples were stored at −80° C.
# [3] = Solubility (statement, no method); format: physicochemical
# [4] = test system: human pancreatic cancer cell MiaPaca 2 xenograft (CDX) model; assay: Tumor inhibition experiment in MiaPaca 2 xenograft model; format: in vivo, BALB/c nude mice
# Procedure: BALB/c nude mice were used as test animals. In vivo pharmacodynamic test was carried out in human pancreatic cancer cell MiaPaca 2 xenograft (CDX) model to evaluate the antitumor effect of the test compound.
# MiaPaca 2 cells were obtained from the cell bank. After recovery, the cells were added to a DMEM medium (containing 10% FBS, 1% Glu and 1% P/S), and incubated in the CO2 incubator (the incubator temperature was 37° C., and the CO2 concentration was 5%). The cells were subjected to passage after spreading 80-90% of the bottom of the culture flask. After passage, the cells were incubated in the CO2 incubator. This process was repeated until the number of cells met the required by in vivo pharmacological inoculation. Cells in log phase were collected, and counted by the automatic cell counter. The cells were re-suspended with PBS and Matrigel (1:1 by volume) based on the counting results to obtain a cell suspension (cell density: […]), which was placed in an ice box.
# Female BALB/c nude mice (6-8 weeks old, body weight: 18-22 grams) were used as test animals. The mice were maintained in individually ventilated cages (5 mice per cage) in a special pathogen-free environment. All cages, padding and water were disinfected before use. All animals had free access to standard certified commercial laboratory diets. The nude mice were labeled with disposable ear tags before the experiment. The skin of the inoculated area was sterilized with 75% medical alcohol before inoculation. Each mouse was subcutaneously inoculated with 0.1 ml (containing 8*10^6 cells) of MiaPaca 2 tumor cells on the right back. Administration was started when the average tumor volume reached 100-200 mm^3. The test compound was administrated intragastrically daily. The tumor volume (mm^3) was measured with vernier caliper twice a week. Calculation formula: V=0.5*D*d*d, wherein D and d refer to the major and minor diameter of the tumor, respectively. The anti-tumor efficacy was determined by dividing the average tumor increase volume of compound-treated animals by the average tumor increase volume of untreated animals. Calculation formula of tumor inhibition rate: TGI (%)=1−[(Vt−V0)administration group/(Vt−V0)solvent control group]*100%. All animals were euthanized after the experiment.
# ERK-1 kinase = biological target: T1, ERK-1 kinase (Homo sapiens, UniProt P27361); assay: Inhibition of ERK-1 kinase activity (LANCE Ultra TR-FRET); format: biochemical; conditions: ERK1 enzyme 0.4 nM, ATP 38.15 μM
# T1 construct: purchased Invitrogen PV3311
# Outline: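 Reactions contained 0.4 nM ERK1, 0.5 μM Ulight-MBP peptide and 38.15 μM ATP in pH 7.4 Hepes/MgCl2 buffer with 4% DMSO and ran 60 minutes at room temperature. Detection used Eu-anti-p-MBP with a 665/615 nm TR-FRET ratio, normalised to DMSO and no-enzyme controls. Final concentrations were 100 nM to 0.005 nM, and IC50 came from a 4-parameter fit.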
# ERK-2 kinase = biological target: T2, ERK-2 kinase (Homo sapiens, UniProt P28482); assay: Inhibition of ERK-2 kinase activity (LANCE Ultra TR-FRET); format: biochemical; conditions: ERK-2 enzyme 0.08 nM, ATP 38.15 μM
# T2 construct: purchased Invitrogen PV3313
# Outline: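 Recombinant ERK-2 (0.08 nM) with ULight-MBP peptide (0.5 μM) and ATP (38.15 μM) in Hepes pH 7.4 buffer, compound 100 nM to 0.005 nM final, 4% DMSO, 60 min at room temperature. Eu-anti-p-MBP TR-FRET (665/615 nm) read after EDTA stop; % inhibition versus DMSO and no-enzyme controls fitted 4-parameter for Abs_IC50.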
# [5] = mouse, male Balb/c mice, PO 50 mg/kg, plasma
# [6] = 100 mg/kg QD × 3 w, intragastric, Day 21
# T1 sequence (P27361 whole entry): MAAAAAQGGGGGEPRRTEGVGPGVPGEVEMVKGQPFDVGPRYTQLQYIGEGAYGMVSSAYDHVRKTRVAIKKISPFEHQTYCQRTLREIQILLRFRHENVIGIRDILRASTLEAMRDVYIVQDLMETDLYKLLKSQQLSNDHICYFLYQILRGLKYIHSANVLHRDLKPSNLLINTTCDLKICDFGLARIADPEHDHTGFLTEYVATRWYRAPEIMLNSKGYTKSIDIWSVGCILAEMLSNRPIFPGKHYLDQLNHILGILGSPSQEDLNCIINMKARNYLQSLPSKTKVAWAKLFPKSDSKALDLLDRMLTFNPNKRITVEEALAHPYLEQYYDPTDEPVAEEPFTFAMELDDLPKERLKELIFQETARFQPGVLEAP
# T2 sequence (P28482 whole entry): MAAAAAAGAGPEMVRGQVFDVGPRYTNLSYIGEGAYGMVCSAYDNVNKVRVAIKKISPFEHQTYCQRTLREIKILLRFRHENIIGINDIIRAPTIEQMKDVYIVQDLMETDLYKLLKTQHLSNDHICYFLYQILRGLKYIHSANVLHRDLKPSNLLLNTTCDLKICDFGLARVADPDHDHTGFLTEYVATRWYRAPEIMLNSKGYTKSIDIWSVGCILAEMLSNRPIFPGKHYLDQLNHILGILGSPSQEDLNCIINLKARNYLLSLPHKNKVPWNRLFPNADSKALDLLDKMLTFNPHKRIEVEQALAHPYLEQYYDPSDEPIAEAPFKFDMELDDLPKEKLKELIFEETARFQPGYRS
"Exposure in mouse plasma ([2]; dose of 50 mg/kg, oral)","Cmax [2, 5]","MRT [2, 5]","Tmax [2, 5]","half-life [2, 5]","AUC(0-t) ([2]; mouse, male Balb/c mice, PO 50 mg/kg, plasma, read-out: AUC0-24)",Solubility compared with ERK compounds of the prior art [3],IC50 (ERK-1 kinase),IC50 (ERK-2 kinase),Compound,Solubility [1],"Tumor volume (Mean ± SD) Day 0 ([4]; 100 mg/kg QD × 3 w, intragastric, Day 0)","TGI Day 21 [4, 6]","Tumor volume (Mean ± SD) Day 21 [4, 6]","ΔT/ΔC Day 21 [4, 6]","Inhibition of growth of xenograft ([4]; 100 mg/kg QD, continuous oral administration for 21 days)"
–,–,–,–,–,–,–,–,–,O=C1Nc2cc3[nH]nc(-c4ccncc4)c3cc2CN1Cc1ccccc1 [KO-947],poor solubility,–,–,–,–,–
good exposure,8260 ng/mL,2.33 h,1 h,49.8 min,27300 ng·h/mL,higher solubility,0.41 nM,0.18 nM,"C[C@@H](NC(=O)c1nc2cc3c(-c4ccncc4)n[nH]c3cc2[nH]1)c1ccc(F)cc1 [Example 7, (R)—N-(1-(4-fluorophenyl)ethyl)-3-(pyridin-4-yl)-1,7-dihydroimidazo[4,5-f]indazole-6-carboxamide]",–,156 ± 33 mm^3,58.3%,426 ± 205 mm^3,41.63%,significantly inhibit the growth
